Where “and” joins values, the source holds several entries; their conditions need not be identical. Equal values may be shown once.
Tests used:
[1] = Stability of DOXO-EMCH in DI water with manual pH adjustment (RP-HPLC); type: physicochemical; details: for DOXO-EMCH / Doxorubicin: ~2.0 mg/mL in DI Water, manual pH adjustment to pH ~6.1 at 30 minute intervals
Method: (§1) To analyze DOXO-EMCH's behavior in solution, a reversed-phase (RP) HPLC method for quantitation of DOXO-EMCH and various impurities and degradation products was utilized. Samples (1.0 μL injection volume) were assayed on an HPLC system fitted with a Phenomenex Gemini C18 column 100×2.0 mm, 3 μm at a flow rate of 0.3 mL/min. The mobile phase used was an acetate/acetonitrile gradient. The degradation product EMCH could not be detected using the above HPLC method, and was therefore determined using a liquid chromatography-mass spectrometry (LC-MS) method.
An additional study was performed to obtain data on the stability of DOXO-EMCH dissolved in DI water with manual pH adjustment. The initial pH of the DOXO-EMCH solution (˜2.0 mg/mL) dissolved in DI Water was 5.4. At 30 minute intervals, the pH of the DOXO-EMCH solution was checked and adjusted to pH ˜6.1 by the dropwise addition of a 0.1 N NaOH solution.

dogs = details: acute and repeat-dose; cited from earlier work
[2] = pH stability study of DOXO-EMCH in DI Water or pH 4.0 buffer (RP-HPLC); type: physicochemical; details: for DOXO-EMCH / Doxorubicin / pH: room temperature
Method: as §1
Studies were performed to examine the effects of pH on DOXO-EMCH stability. In these studies, a criterion of less than 3% doxorubicin over 3-5 hours was set as the goal for stability of DOXO-EMCH. Overall, studies were designed to measure the degradation of DOXO-EMCH at room temperature into doxorubicin and EMCH. Doxorubicin was measured as a percentage of the starting DOXO-EMCH material. Due to solubility issues, the buffer controlled pH portion of the study could not be completed at pH 5.0, 5.5, 6.0 and 7.0. The results below are for DOXO-EMCH dissolved in DI Water at low (2.0 mg/mL) and high (20.0 mg/mL) concentration, and DOXO-EMCH dissolved in pH 4.0 phosphate citrate buffer at low concentration. In summary, none of the conditions met the goal of less than 3% doxorubicin HCl over a 3-5 hour period. […] The DOXO-EMCH dissolved in pH 4.0 phosphate citrate buffer was very unstable, likely as a result of the breakdown of the molecule at pH values below ˜4.5 (Table 6).

advanced cancer patients = details: Phase 1, 41 advanced cancer patients, cited from earlier work
rats = details: acute and repeat-dose; cited from earlier work
mice = details: acute and repeat-dose; cited from earlier work
[3] = Solubility and stability of lyophilized DOXO-EMCH reconstituted in diluents at 10 mg/mL; type: physicochemical; details: for pH: ambient conditions
Method: as §1
Having established preliminary information on DOXO-EMCH's properties when dissolved in NS, LR, and D5W, a follow-up study was designed to evaluate (1) the solubility and stability of DOXO-EMCH in selected diluents upon reconstitution and (2) the subsequent stability of various IV Admixtures. Diluents included Sterile Water for Injection (SWFI), Lactated Ringers Solution (LR), and 50% (v/v) ethanol/SWFI.
The study evaluating solubility and stability of lyophilized DOXO-EMCH reconstituted in SWFI, LR, and 50% (v/v) ethanol/SWFI was conducted using a target DOXO-EMCH concentration of 10 mg/mL. To obtain a 10 mg/mL concentration, 20 mL of diluent was added to a vial containing 200 mg of lyophilized DOXO-EMCH, and the vial was gently swirled to dissolve the contents and obtain a homogeneous mixture. The sample was mixed and visually inspected for complete reconstitution to a clear solution for a) approximately 30 seconds, b) approximately 60 seconds, and c) 120 seconds, then up to a total of 10 minutes. If more than 120 seconds were required for visual clarity, the vial may have been intermittently swirled up to a maximum of 10 minutes. Duplicate vials were prepared for each study. Each vial was assessed 10 minutes and 20 minutes after the addition of reconstitution diluent for visual appearance of the reconstituted solution and sampled at these time points for determination of DOXO-EMCH content, doxorubicin content, and solution pH. If a given diluent was determined to provide acceptable solubilization and stability of the vial contents after 20 minutes at ambient conditions, the diluent proceeded directly to part 2 of the study.
The reconstituted solution was evaluated for color, clarity, and absence of insoluble material in the vial after every 30 seconds of mixing. Following addition of the reconstituted drug product solution to the IV bag, the resulting IV Admixture was evaluated for color, clarity, and absence of any insoluble material immediately after mixing and at each analytical time point. The amount (area %) of the degradation product doxorubicin was determined at each time point.

[4] = ~2.0 mg/mL in DI Water, no pH adjustment, 0 hr
[5] = ~2.0 mg/mL in DI Water, no pH adjustment, 2 hr
[6] = ~2.0 mg/mL in DI Water, no pH adjustment, 4 hr
[7] = ~2.0 mg/mL in DI Water, no pH adjustment, 6 hr
[8] = ~2.0 mg/mL in pH 4.0 phosphate citrate buffer, 0 hr
[9] = ~2.0 mg/mL in pH 4.0 phosphate citrate buffer, 2 hr
[10] = ~2.0 mg/mL in pH 4.0 phosphate citrate buffer, 4 hr
[11] = ~20.0 mg/mL in DI Water, no pH adjustment, 0 hr
[12] = ~20.0 mg/mL in DI Water, no pH adjustment, 2 hr
[13] = ~20.0 mg/mL in DI Water, no pH adjustment, 4 hr
[14] = ~20.0 mg/mL in DI Water, no pH adjustment, 6 hr

COc1cccc2c1C(=O)c1c(O)c3c(c(O)c1C2=O)C[C@@](O)(/C(CO)=N/NC(=O)CCCCCN1C(=O)C=CC1=O)C[C@@H]3O[C@H]1C[C@H](N)[C@H](O)[C@H](C)O1.Cl [DOXO-EMCH]
initial pH of the DOXO-EMCH solution ([1]; ~2.0 mg/mL dissolved in DI Water, before adjustment): 5.4 | DOXO-EMCH ([1]; 0 hr): 98.8 wt % | Doxorubicin ([1]; 0 hr): 0.5 wt % | DOXO-EMCH ([1]; 2 hr): 91.8 wt % | Doxorubicin ([1]; 2 hr): 2.4 wt % | DOXO-EMCH ([1]; 4 hr): 85.6 wt % | Doxorubicin ([1]; 4 hr): 3.6 wt % | DOXO-EMCH ([1]; 6 hr): 80.6 wt % | Doxorubicin ([1]; 6 hr): 4.3 wt % | tolerance compared to doxorubicin (dogs): significantly higher tolerance | stability ([2]; dissolved in pH 4.0 phosphate citrate buffer): very unstable | DOXO-EMCH [2, 4]: 95.8 wt % | Doxorubicin [2, 4]: 0.6 wt % | pH [2, 4]: 6.0 | DOXO-EMCH [2, 5]: 82.8 wt % | Doxorubicin [2, 5]: 3.7 wt % | pH [2, 5]: 5.4 | DOXO-EMCH [2, 6]: 76.7 wt % | Doxorubicin [2, 6]: 8.9 wt % | pH [2, 6]: 5.1 | DOXO-EMCH [2, 7]: 68.6 wt % | Doxorubicin [2, 7]: 14.3 wt % | pH [2, 7]: 5.0 | DOXO-EMCH [2, 8]: 65.1 wt % | Doxorubicin [2, 8]: 23.5 wt % | pH [2, 8]: 4.0 | DOXO-EMCH [2, 9]: 7.3 wt % | Doxorubicin [2, 9]: 66.1 wt % | pH [2, 9]: 4.0 | DOXO-EMCH [2, 10]: 2.9 wt % | Doxorubicin [2, 10]: 68.8 wt % | pH [2, 10]: 4.0 | DOXO-EMCH [2, 11]: 86.0 wt % | Doxorubicin [2, 11]: 7.8 wt % | pH [2, 11]: 4.8 | DOXO-EMCH [2, 12]: 74.9 wt % | Doxorubicin [2, 12]: 15.6 wt % | pH [2, 12]: 4.6 | DOXO-EMCH [2, 13]: 56.7 wt % | Doxorubicin [2, 13]: 24.8 wt % | pH [2, 13]: 4.5 | DOXO-EMCH [2, 14]: 45.2 wt % | Doxorubicin [2, 14]: 32.2 wt % | pH [2, 14]: 4.6 | tumor response (advanced cancer patients; in some cases): induced tumor regression | clinical safety (advanced cancer patients): safe for clinical use | tolerance compared to doxorubicin (rats): significantly higher tolerance | tolerance compared to doxorubicin (mice): significantly higher tolerance | solubility ([3]; in ethanol:water): completely soluble | time to go into solution ([3]; in ethanol:water): within less than a minute | mixing time until solutions appeared visually clear ([3]; reconstituted in 50:50 ethanol:water at 10 mg/mL): 120 s | pH ([3]; reconstituted in 50:50 ethanol:water at 10 mg/mL, 10 minutes): 5.9 | pH ([3]; reconstituted in 50:50 ethanol:water at 10 mg/mL, 20 minutes): 5.7 and 5.8 | mixing time until solutions appeared visually clear ([3]; reconstituted in LR at 10 mg/mL): 120 s | pH ([3]; reconstituted in LR at 10 mg/mL, 10 minutes): 6.0 and 5.9 | pH ([3]; reconstituted in LR at 10 mg/mL, 20 minutes): 5.9 and 5.8 | pH ([3]; reconstituted in SWFI at 10 mg/mL, 10 minutes): 5.4 and 5.3 | pH ([3]; reconstituted in SWFI at 10 mg/mL, 20 minutes): 5.1 and 5.5 | mixing time until solutions appeared visually clear ([3]; reconstituted in SWFI at 10 mg/mL, a few undissolved particles remained): 90 to 120 s

Reference: patent US10328093B2, “Anthracycline formulations” (CYTRX CORPORATION, priority 2012, dated 2019)
